Laboratory results reported in PubChem BioAssay AID248 (DTP/NCI, 2004).
Several values for one entry are separate records, joined by “and”; a condition that tells them apart may be missing. Equal entries are not always repeated. Inconclusive results and toxic doses are left out. Square brackets hold non-standard residues; d marks the D form. Peptide text beside a SMILES is read from it. * marks the point of attachment. ξ: configuration not given here. ξV = CC(C)C(N)C(=O)O; ClAc = O=C(CCl)*

Tested on: L1210 leukemia ip in BDF1 mice, survival T/C
Assay: NCI In Vivo Anticancer Drug Screen. Data for tumor model L1210 Leukemia (intraperitoneal) in B6D2F1 (BDF1) mice
Conditions: endpoint: mean survival time, higher = longer survival
In short: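 Mice bearing the transplanted tumor received compound or vehicle. Survival of the treated group was divided by that of the vehicle-treated control group to give the ratio.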

[1] = dose: 100.0 mg/kg/injection, schedule: Q04DX003 (ip), vehicle: saline with Tween-80
[2] = dose: 200.0 mg/kg/injection, schedule: Q01DX009 (ip), vehicle: saline with Tween-80
[3] = dose: 200.0 mg/kg/injection, schedule: Q04DX003 (ip), vehicle: saline with Tween-80
[4] = dose: 400.0 mg/kg/injection, schedule: Q04DX003 (ip), vehicle: saline with Tween-80
[5] = dose: 100.0 mg/kg/injection, schedule: Q01DX001 (ip), vehicle: saline
[6] = dose: 200.0 mg/kg/injection, schedule: Q01DX001 (ip), vehicle: saline
[7] = dose: 100.0 mg/kg/injection, schedule: Q04DX003 (ip), vehicle: Klucel (hydroxypropylcellulose) (HPC)
[8] = dose: 200.0 mg/kg/injection, schedule: Q04DX003 (ip), vehicle: Klucel (hydroxypropylcellulose) (HPC)
[9] = dose: 400.0 mg/kg/injection, schedule: Q04DX003 (ip), vehicle: Klucel (hydroxypropylcellulose) (HPC)
[10] = dose: 50.0 mg/kg/injection, schedule: Q01DX001 (ip), vehicle: saline
[11] = dose: 100.0 mg/kg/injection, schedule: Q01DX001 (ip), vehicle: carboxymethylcellulose (CMC)
[12] = dose: 50.0 mg/kg/injection, schedule: Q01DX009 (ip), vehicle: saline with Tween-80
[13] = dose: 100.0 mg/kg/injection, schedule: Q01DX009 (ip), vehicle: Klucel (hydroxypropylcellulose) (HPC)
[14] = dose: 200.0 mg/kg/injection, schedule: Q01DX009 (ip), vehicle: Klucel (hydroxypropylcellulose) (HPC)
[15] = dose: 400.0 mg/kg/injection, schedule: Q01DX009 (ip), vehicle: Klucel (hydroxypropylcellulose) (HPC)
[16] = dose: 400.0 mg/kg/injection, schedule: Q01DX001 (ip), vehicle: saline
[17] = dose: 200.0 mg/kg/injection, schedule: Q01DX001 (ip), vehicle: carboxymethylcellulose (CMC)

CCOP(=O)(OCC)N1C(C)C1c1ccccc1 (centres undefined)
T/C (dose: 25.0 mg/kg/injection, schedule: Q04DX003 (sc), vehicle: carboxymethylcellulose (CMC)): 100 % of control | T/C (dose: 50.0 mg/kg/injection, schedule: Q04DX003 (sc), vehicle: carboxymethylcellulose (CMC)): 104 % of control | T/C (dose: 100.0 mg/kg/injection, schedule: Q04DX003 (sc), vehicle: carboxymethylcellulose (CMC)): 112 % of control

CC1=CC(=O)N(NC(N)=O)C1=O
T/C [1]: 94 % of control | T/C [2]: 90 % of control | T/C [3]: 102 % of control | T/C [4]: 105 % of control

CC(C)C(NC(=O)CNC(=O)CCl)C(=O)O (centres undefined) (ClAc-Gly-[ξV]-OH)
T/C [1]: 101 % of control | T/C [3]: 101 % of control

C=COC(=O)NC(Cc1ccccc1)C(=O)O (centres undefined)
T/C [5]: 97 % of control | T/C [6]: 89 % of control

Cn1ncc2ccccc2c1=O
T/C (dose: 50.0 mg/kg/injection, schedule: Q04DX003 (ip), vehicle: Klucel (hydroxypropylcellulose) (HPC)): 100 % of control | T/C [7]: 100 % of control | T/C [8]: 106 % of control | T/C [9]: 110 % of control

C/C(=C\C(=O)O)CC(=O)O
T/C (dose: 25.0 mg/kg/injection, schedule: Q01DX009 (ip), vehicle: water): 88 % of control | T/C (dose: 25.0 mg/kg/injection, schedule: Q04DX003 (ip), vehicle: water): 95 % of control and 105 % of control | T/C (dose: 50.0 mg/kg/injection, schedule: Q04DX003 (ip), vehicle: water): 104 % of control and 89 % of control | T/C (dose: 100.0 mg/kg/injection, schedule: Q01DX009 (ip), vehicle: water): 88 % of control | T/C (dose: 100.0 mg/kg/injection, schedule: Q04DX003 (ip), vehicle: water): 101 % of control and 102 % of control | T/C (dose: 200.0 mg/kg/injection, schedule: Q04DX003 (ip), vehicle: water): 93 % of control

CCOc1cc(C=Nc2cc(Cl)c(O)c(Cl)c2)ccc1N(CCCl)CCCl
T/C (dose: 5.0 mg/kg/injection, schedule: Q01DX009 (ip), vehicle: carboxymethylcellulose (CMC)): 114 % of control | T/C (dose: 5.0 mg/kg/injection, schedule: Q01DX009 (ip), vehicle: saline): 105 % of control | T/C (dose: 10.0 mg/kg/injection, schedule: Q01DX009 (ip), vehicle: saline): 106 % of control | T/C (dose: 13.0 mg/kg/injection, schedule: Q01DX009 (ip), vehicle: carboxymethylcellulose (CMC)): 120 % of control | T/C (dose: 25.0 mg/kg/injection, schedule: Q01DX001 (ip), vehicle: saline): 109 % of control | T/C (dose: 44.0 mg/kg/injection, schedule: Q01DX001 (ip), vehicle: carboxymethylcellulose (CMC)): 118 % of control | T/C (dose: 44.0 mg/kg/injection, schedule: Q01DX009 (ip), vehicle: other): 113 % of control | T/C [10]: 116 % of control | T/C [11]: 150 % of control

N#Cc1cccn1O
T/C (dose: 37.5 mg/kg/injection, schedule: Q01DX009 (ip), vehicle: Klucel (hydroxypropylcellulose) (HPC)): 104 % of control | T/C (dose: 75.0 mg/kg/injection, schedule: Q01DX009 (ip), vehicle: Klucel (hydroxypropylcellulose) (HPC)): 100 % of control | T/C (dose: 150.0 mg/kg/injection, schedule: Q01DX009 (ip), vehicle: Klucel (hydroxypropylcellulose) (HPC)): 108 % of control

CCN(CC)CC(=O)Nc1cccc2c1C(=O)c1c(c(O)c3ccccc3c1O)C2=O
T/C [12]: 94 % of control | T/C (dose: 100.0 mg/kg/injection, schedule: Q01DX009 (ip), vehicle: saline with Tween-80): 103 % of control | T/C [1]: 101 % of control | T/C [2]: 98 % of control | T/C [3]: 155 % of control | T/C [4]: 102 % of control

O=C1OC(=O)c2c1ccc(Br)c2Br
T/C [13]: 102 % of control | T/C [7]: 101 % of control | T/C [14]: 96 % of control | T/C [8]: 98 % of control | T/C [15]: 89 % of control | T/C [9]: 93 % of control

CSCCC(NC(=O)CN)C(=O)O (centres undefined)
T/C [5]: 96 % of control | T/C [6]: 104 % of control | T/C [16]: 102 % of control

Cc1ccc(S(=O)(=O)NN=C2CCS(=O)CC2)cc1 (centres undefined)
T/C [13]: 90 % of control | T/C [14]: 97 % of control | T/C [15]: 94 % of control

Cc1ncc(CC(=O)O)c2c1OC(C)(C)OC2
T/C [11]: 101 % of control | T/C [17]: 106 % of control | T/C (dose: 400.0 mg/kg/injection, schedule: Q01DX001 (ip), vehicle: carboxymethylcellulose (CMC)): 98 % of control

CC(=O)NC1(CO)CCCCC1
T/C (dose: 100.0 mg/kg/injection, schedule: Q04DX003 (ip), vehicle: saline): 105 % of control | T/C (dose: 200.0 mg/kg/injection, schedule: Q04DX003 (ip), vehicle: saline): 95 % of control | T/C (dose: 400.0 mg/kg/injection, schedule: Q04DX003 (ip), vehicle: saline): 94 % of control

Cc1ccc(-c2oc(-c3ccc(C)cc3)c3cc(C)c(C)cc23)cc1
T/C (dose: 100.0 mg/kg/injection, schedule: Q01DX001 (ip), vehicle: Klucel (hydroxypropylcellulose) (HPC)): 87 % of control | T/C (dose: 200.0 mg/kg/injection, schedule: Q01DX001 (ip), vehicle: Klucel (hydroxypropylcellulose) (HPC)): 90 % of control | T/C (dose: 400.0 mg/kg/injection, schedule: Q01DX001 (ip), vehicle: Klucel (hydroxypropylcellulose) (HPC)): 88 % of control

COC(=O)C1CC(C(N)=O)CC1OC(C)=O (centres undefined)
T/C [13]: 100 % of control | T/C [14]: 93 % of control | T/C [15]: 98 % of control

CCCC1C(CC)CC(CC)C(O)C1(CC)CO (centres undefined)
T/C (dose: 100.0 mg/kg/injection, schedule: Q01DX009 (ip), vehicle: other): 98 % of control | T/C (dose: 200.0 mg/kg/injection, schedule: Q01DX009 (ip), vehicle: other): 95 % of control | T/C (dose: 400.0 mg/kg/injection, schedule: Q01DX009 (ip), vehicle: other): 87 % of control

O=C(NCCCl)N(O)C12CC3CC(CC(C3)C1)C2
T/C (dose: 100.0 mg/kg/injection, schedule: Q01DX001 (ip), vehicle: saline with Tween-80): 90 % of control | T/C (dose: 200.0 mg/kg/injection, schedule: Q01DX001 (ip), vehicle: saline with Tween-80): 97 % of control | T/C (dose: 400.0 mg/kg/injection, schedule: Q01DX001 (ip), vehicle: saline with Tween-80): 98 % of control

O=c1[nH]cc(CC(F)(F)C(F)(F)F)c(=O)[nH]1
T/C (dose: 50.0 mg/kg/injection, schedule: Q01DX005 (ip), vehicle: other): 87 % of control

Cc1cccc(NC(=O)Nc2ccccc2Cl)c1C
T/C [13]: 94 % of control | T/C [7]: 95 % of control | T/C [14]: 92 % of control | T/C [8]: 110 % of control | T/C [15]: 96 % of control | T/C [9]: 96 % of control

Cc1cc(Cl)ccc1NC(=O)Nc1ccccc1
T/C (dose: 100.0 mg/kg/injection, schedule: Q01DX009 (ip), vehicle: gum acacia): 87 % of control | T/C (dose: 100.0 mg/kg/injection, schedule: Q04DX003 (ip), vehicle: gum acacia): 87 % of control | T/C (dose: 200.0 mg/kg/injection, schedule: Q01DX009 (ip), vehicle: gum acacia): 89 % of control | T/C (dose: 200.0 mg/kg/injection, schedule: Q04DX003 (ip), vehicle: gum acacia): 89 % of control | T/C (dose: 400.0 mg/kg/injection, schedule: Q01DX009 (ip), vehicle: gum acacia): 87 % of control | T/C (dose: 400.0 mg/kg/injection, schedule: Q04DX003 (ip), vehicle: gum acacia): 90 % of control

C=Nc1ccc(Cl)cc1
T/C (dose: 50.0 mg/kg/injection, schedule: Q01DX001 (ip), vehicle: carboxymethylcellulose (CMC)): 98 % of control | T/C [11]: 93 % of control | T/C [17]: 98 % of control

O=C1NN(c2ccccc2)CCO1
T/C [13]: 100 % of control | T/C [14]: 93 % of control

CCC(CCC(C)C1CCC2C3CC=C4CC(O)CCC4(C)C3CCC12C)C(C)C (centres undefined) (tested in a mixture with another compound)
T/C (dose: 12.5 mg/kg/injection, schedule: Q#A X030 (ip), vehicle: water): 103 % of control | T/C (dose: 25.0 mg/kg/injection, schedule: Q01DX009 (ip), vehicle: saline with Tween-80): 93 % of control | T/C (dose: 25.0 mg/kg/injection, schedule: Q#A X030 (ip), vehicle: water): 101 % of control | T/C [12]: 89 % of control | T/C (dose: 50.0 mg/kg/injection, schedule: Q#A X030 (ip), vehicle: water): 92 % of control | T/C [1]: 100 % of control | T/C (dose: 200.0 mg/kg/injection, schedule: Q01DX001 (ip), vehicle: water): 101 % of control | T/C (dose: 400.0 mg/kg/injection, schedule: Q01DX001 (ip), vehicle: water): 95 % of control

COCc1c(C)cc(C)cc1C
T/C [10]: 91 % of control | T/C [5]: 107 % of control | T/C [6]: 103 % of control | T/C [16]: 113 % of control
